Read-outs that look alike come from different tables or passages of the source. Bridge positions count the residues as written; N and C are the ends. Square brackets hold non-standard residues; d marks the D form. Peptide text beside a SMILES is read from it. Cha = N[C@@H](CC1CCCCC1)C(=O)O; Nle = CCCC[C@H](N)C(=O)O; Mpa = O=C(O)CCS
Legend:
endothelin receptor = assay: Assay of affinity for receptor (inhibition of 125I-ET-1 binding to porcine myocardial membrane fraction); settings: for Receptor binding activity (specific activity): relative to ET-1 = 100
Method: Assay of Affinity for Receptor
A membrane fraction prepared from the porcine heart was diluted to 0.15 mg/ml by using a buffer solution for assay, and 100 μl of the resulting suspension of the membrane fraction was poured into each assay tube to use for assay. To this suspension of the membrane fraction was added 2 μl of 5 nM ^125 I labeled endothelin-1 solution. Further, 3 μl of a test peptide solution was added thereto, followed by incubation at a temperature of 25° C. for 1 hour. Then, the resulting suspension was diluted with 900 μl of the buffer solution for assay cooled with ice, and thereafter separated into a supernatant and a precipitate by centrifugation at 12,000×g for 10 minutes. Cell membranes and an endothelin receptor embedded therein were contained in the precipitate, and radioactive iodine-labeled endothelin combined with the receptor was also recovered in the precipitate. Accordingly, the amount of radioactive iodine-labeled endothelin combined with the endothelin receptor was determined by measuring the amount of radioactive iodine contained in the precipitate with a gamma-ray counter.

[1] = tested on: porcine coronary smooth muscles
Method: (1) Assay of Constrictor Suppressing Activity on Porcine Coronary Smooth Muscles
(§1) Spiral strips 2 mm×15 mm prepared from the coronary right ramus circumflexus from which the adventitial connective tissues and the endothelial cells were removed were set to 4 ml organ baths. The tension of each strip was detected by a force displacement transducer UL-10GR (Minebea), and recorded by a polygraph (NEC Sanei). The organ baths were maintained at 37° C., and filled with a Krebs-Henseleit solution (composition: 118 mM NaCl, 4.7 mM KCl, 2.5 mM CaCl2, 1.2 mM KH2 PO4, 25.0 mM NaHCO3, 1.2 mM MgSO4, 10.0 mM glucose) gassed with 95% O2 and 5% CO2.
(§2) A tension of 1.25 to 1.5 g was applied to each of the strips, followed by equilibration for 1.5 hours. 60 mM KCl was repeatedly applied thereto at intervals of 30 minutes until the constriction response became constant. After additional equilibration for 1.5 hours, a sample for assay was given thereto. The constriction of the strips was normalized by the constriction response of the individual strips to 60 mM KCl and statistically processed.
pA2 is a negative logarithm value of a molar concentration of a competitive antagonist necessary for shifting in parallel a dose response curve for an active drug (for example, ET-1) alone to the high dose side by a factor of 2.

porcine coronary artery = assay: Constrictor activity on porcine coronary smooth muscles; settings: for Maximum constriction (% 60 mM KCl): porcine coronary artery strips, normalized to 60 mM KCl response; for Constrictor activity (specific activity): relative to ET-1 = 100
Method: as §1, §2
(2) As to the antagonistic property of the peptides of the present invention to endothelin, the affinity for an endothelin receptor and the constrictor activity on porcine coronary smooth muscles (according to the method described in (1) described above) were assayed. The affinity for the receptor was assayed by the following method.

Compound | Receptor binding activity (specific activity) (endothelin receptor) | Relative potency [1] | pA2 [1] | Maximum constriction (% 60 mM KCl) (porcine coronary artery) | Constrictor activity (specific activity) (porcine coronary artery; porcine coronary artery) | pA2 ([1]; against cumulative endothelin-1, porcine coronary smooth muscles) | IC50 (endothelin receptor; read-out: IC50, concentration required to prevent 50% of the binding of I125-ET1 to the porcine myocardial membrane fraction) [nM] | EC50 (porcine coronary artery; porcine coronary artery, read-out: EC50 (% KCl), concentration which induces 50% of the constriction of the porcine coronary artery due to 60 mM KCl) [nM]
CC[C@H](C)[C@H](NC(=O)[C@H](Cc1ccccc1)NC(=O)[C@@H](NC(=O)[C@H](CC(C)C)NC(=O)[C@H](Cc1c[nH]cn1)NC(=O)[C@@H]1CSSC[C@H](N)C(=O)N[C@@H](CO)C(=O)N[C@H]2CSSC[C@H](NC(=O)[C@H](CCC(=O)O)NC(=O)[C@H](CCCCN)NC(=O)[C@H](CC(=O)O)NC(=O)[C@H](CCSC)NC(=O)[C@H](CC(C)C)NC(=O)[C@H](CO)NC(=O)[C@H](CO)NC2=O)C(=O)N[C@@H](C(C)C)C(=O)N[C@@H](Cc2ccc(O)cc2)C(=O)N[C@@H](Cc2ccccc2)C(=O)N1)[C@@H](C)O)C(=O)N[C@@H](Cc1c[nH]c2ccccc12)C(=O)O [Example 3, [Thr^18, Phe^19]-ET-1] (H-CSCSSLMDKECVYFCHLTFIW-OH; disulfide 1-15, 3-11) | 9.0 | 32 | 7.2 | 4 | < 0.1 |  |  | 
CC[C@H](C)[C@H](NC(=O)[C@H](CC(C)C)NC(=O)[C@@H](NC(=O)[C@H](CC(C)C)NC(=O)[C@H](Cc1c[nH]cn1)NC(=O)[C@@H]1CSSCCC(=O)N[C@@H](CO)C(=O)N[C@H]2CSSC[C@H](NC(=O)[C@H](CCC(=O)O)NC(=O)[C@H](CCCCN)NC(=O)[C@H](CC(=O)O)NC(=O)[C@H](CCSC)NC(=O)[C@H](CC(C)C)NC(=O)[C@H](CO)NC(=O)[C@H](CO)NC2=O)C(=O)N[C@@H](C(C)C)C(=O)N[C@@H](Cc2ccc(O)cc2)C(=O)N[C@@H](Cc2ccccc2)C(=O)N1)[C@@H](C)O)C(=O)N[C@@H](Cc1c[nH]c2ccccc12)C(=O)O [Example 11, [Mpr^1, Thr^18, Leu^19]-ET-1] ([Mpa]SCSSLMDKECVYFCHLTLIW-OH; disulfide 1-15, 3-11) | 16 | 6 | 6.5 | 1 | < 0.1 |  |  | 
CC[C@H](C)[C@H](NC(=O)[C@H](CC(C)C)NC(=O)[C@H](CC(N)=O)NC(=O)[C@H](CC(C)C)NC(=O)[C@H](Cc1c[nH]cn1)NC(=O)[C@@H]1CSSC[C@H](N)C(=O)N[C@@H](CO)C(=O)N[C@H]2CSSC[C@H](NC(=O)[C@H](CCC(=O)O)NC(=O)[C@H](CCCCN)NC(=O)[C@H](CC(=O)O)NC(=O)[C@H](CCSC)NC(=O)[C@H](CC(C)C)NC(=O)[C@H](CO)NC(=O)[C@H](CO)NC2=O)C(=O)N[C@@H](C(C)C)C(=O)N[C@@H](Cc2ccc(O)cc2)C(=O)N[C@@H](Cc2ccccc2)C(=O)N1)C(=O)N[C@@H](Cc1c[nH]c2ccccc12)C(=O)O [Example 7, [Asn^18, Leu^19]-ET-1] (H-CSCSSLMDKECVYFCHLNLIW-OH; disulfide 1-15, 3-11) | 12 |  |  | 4 | < 0.1 |  |  | 
CC[C@H](C)[C@H](NC(=O)[C@H](CC(C)C)NC(=O)[C@@H](NC(=O)[C@H](CC(C)C)NC(=O)[C@H](Cc1c[nH]cn1)NC(=O)[C@@H]1CSSC[C@H](N)C(=O)N[C@@H](CO)C(=O)N[C@H]2CSSC[C@H](NC(=O)[C@H](CCC(=O)O)NC(=O)[C@H](C)NC(=O)[C@H](CC(=O)O)NC(=O)[C@H](CCSC)NC(=O)[C@H](CC(C)C)NC(=O)[C@H](CO)NC(=O)[C@H](CO)NC2=O)C(=O)N[C@@H](C(C)C)C(=O)N[C@@H](Cc2ccc(O)cc2)C(=O)N[C@@H](Cc2ccccc2)C(=O)N1)[C@@H](C)O)C(=O)N[C@@H](Cc1c[nH]c2ccccc12)C(=O)O [Example 10, [Ala^9, Thr^18, Leu^19]-ET-1] (H-CSCSSLMDAECVYFCHLTLIW-OH; disulfide 1-15, 3-11) | 16 | 1.6 | 5.9 | 4 | < 0.1 |  |  | 
CC[C@H](C)[C@H](NC(=O)[C@H](CC1CCCCC1)NC(=O)[C@@H](NC(=O)[C@H](CC(C)C)NC(=O)[C@H](Cc1c[nH]cn1)NC(=O)[C@@H]1CSSC[C@H](N)C(=O)N[C@@H](CO)C(=O)N[C@H]2CSSC[C@H](NC(=O)[C@H](CCC(=O)O)NC(=O)[C@H](CCCCN)NC(=O)[C@H](CC(=O)O)NC(=O)[C@H](CCSC)NC(=O)[C@H](CC(C)C)NC(=O)[C@H](CO)NC(=O)[C@H](CO)NC2=O)C(=O)N[C@@H](C(C)C)C(=O)N[C@@H](Cc2ccc(O)cc2)C(=O)N[C@@H](Cc2ccccc2)C(=O)N1)[C@@H](C)O)C(=O)N[C@@H](Cc1c[nH]c2ccccc12)C(=O)O [Example 2, [Thr^18, Cha^19]-ET-1] (H-CSCSSLMDKECVYFCHLT[Cha]IW-OH; disulfide 1-15, 3-11) | 23 |  |  | 2 | < 0.1 | 7.7 |  | 
CC[C@H](C)[C@H](NC(=O)[C@H](CC(C)C)NC(=O)[C@@H](NC(=O)[C@H](CC(C)C)NC(=O)[C@H](Cc1c[nH]cn1)NC(=O)[C@@H]1CSSC[C@H](N)C(=O)N[C@@H]([C@@H](C)O)C(=O)N[C@H]2CSSC[C@H](NC(=O)[C@H](CCC(=O)O)NC(=O)[C@H](CCCCN)NC(=O)[C@H](CC(=O)O)NC(=O)[C@H](CCCCN)NC(=O)[C@H](Cc3ccc(O)cc3)NC(=O)[C@H]([C@@H](C)O)NC(=O)[C@H](Cc3ccccc3)NC2=O)C(=O)N[C@@H](C(C)C)C(=O)N[C@@H](Cc2ccc(O)cc2)C(=O)N[C@@H](Cc2ccc(O)cc2)C(=O)N1)[C@@H](C)O)C(=O)N[C@@H](Cc1c[nH]c2ccccc12)C(=O)O [Example 9, [Thr^18, Leu^19]-ET-3] (H-CTCFTYKDKECVYYCHLTLIW-OH; disulfide 1-15, 3-11) | 4.0 |  |  | 12 | < 0.1 |  |  | 
CC[C@H](C)[C@H](NC(=O)[C@H](CC(N)=O)NC(=O)[C@@H](NC(=O)[C@H](CC(C)C)NC(=O)[C@H](Cc1c[nH]cn1)NC(=O)[C@@H]1CSSC[C@H](N)C(=O)N[C@@H](CO)C(=O)N[C@H]2CSSC[C@H](NC(=O)[C@H](CCC(=O)O)NC(=O)[C@H](CCCCN)NC(=O)[C@H](CC(=O)O)NC(=O)[C@H](CCSC)NC(=O)[C@H](CC(C)C)NC(=O)[C@H](CO)NC(=O)[C@H](CO)NC2=O)C(=O)N[C@@H](C(C)C)C(=O)N[C@@H](Cc2ccc(O)cc2)C(=O)N[C@@H](Cc2ccccc2)C(=O)N1)[C@@H](C)O)C(=O)N[C@@H](Cc1c[nH]c2ccccc12)C(=O)O [Example 5, [Thr^18, Asn^19]-ET-1] (H-CSCSSLMDKECVYFCHLTNIW-OH; disulfide 1-15, 3-11) | 1.6 |  |  | 9 | < 0.1 |  |  | 
CC[C@H](C)[C@H](NC(=O)[C@H](CC(=O)O)NC(=O)[C@H](CC(C)C)NC(=O)[C@H](Cc1c[nH]cn1)NC(=O)[C@@H]1CSSC[C@H](N)C(=O)N[C@@H](CO)C(=O)N[C@H]2CSSC[C@H](NC(=O)[C@H](CCC(=O)O)NC(=O)[C@H](CCCCN)NC(=O)[C@H](CC(=O)O)NC(=O)[C@H](CCSC)NC(=O)[C@H](CC(C)C)NC(=O)[C@H](CO)NC(=O)[C@H](CO)NC2=O)C(=O)N[C@@H](C(C)C)C(=O)N[C@@H](Cc2ccc(O)cc2)C(=O)N[C@@H](Cc2ccccc2)C(=O)N1)C(=O)N[C@H](C(=O)N[C@@H](Cc1c[nH]c2ccccc12)C(=O)O)[C@@H](C)CC [ET-1, endothelin-1, reference compound] | […] |  |  | 120 | […] |  | […] | 1.6
CCCC[C@@H]1NC(=O)[C@H](CC(C)C)NC(=O)[C@H](CO)NC(=O)[C@H](CO)NC(=O)[C@@H]2CSSC[C@H](NC(=O)[C@H](CCC(=O)O)NC(=O)[C@H](CCCCN)NC(=O)[C@H](CC(=O)O)NC1=O)C(=O)N[C@@H](C(C)C)C(=O)N[C@@H](Cc1ccc(O)cc1)C(=O)N[C@@H](Cc1ccccc1)C(=O)N[C@H](C(=O)N[C@@H](Cc1c[nH]cn1)C(=O)N[C@@H](CC(C)C)C(=O)N[C@H](C(=O)N[C@@H](CC(C)C)C(=O)N[C@H](C(=O)N[C@@H](Cc1c[nH]c3ccccc13)C(=O)O)[C@@H](C)CC)[C@@H](C)O)CSSC[C@H](N)C(=O)N[C@@H](CO)C(=O)N2 [Example 17, [Nle^7, Thr^18, Leu^19]-ET-1] (H-CSCSSL[Nle]DKECVYFCHLTLIW-OH; disulfide 1-15, 3-11) | 27 |  |  | 9 | < 0.1 |  |  | 

— US5352659A, “Endothelin analogs and uses thereof” (Takeda Chemical Industries, priority 1991, dated 1994)
